Results taken from patent US20240262848A1, “HETEROCYCLIC COMPOUNDS, COMPOSITIONS THEREOF, AND METHODS OF TREATMENT THEREWITH” (BeiGene, Ltd., priority 2022, published 2024).
pIC50: −log10 of the molar value.

Tests used:
[1] = biological target: GST-tagged GDP-loaded KRAS G12V (amino acids 1-169) (Homo sapiens, UniProt P01116, G12V); assay: KRAS G12V probe displacement assay (TR-FRET); assay type: binding; conditions: Table 4; KRAS G12V 2 nM, biotinylated probe 2 2.5 nM
Protocol: Plates are incubated at 24 °C for 1 hr. […] After 1 hr incubation at 24° C.

[2] = system: pERK1/2(THR202/TYR204) level in SW620 cell line; assay: KRAS G12V pERK assay in SW620 cells (HTRF); assay type: cell-based
Method in brief: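 SW620 cells were treated for 2 h with a 10-point dilution series (final 0–10 μM) after overnight seeding. Lysates were then incubated overnight at room temperature with Eu3+-cryptate and acceptor anti-phospho-ERK1/2 antibodies, and HTRF was read at 655 nm. IC50 was fitted from percent inhibition versus log concentration.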

[3] = biological target: GST-tagged GDP-loaded KRAS G12D (amin acids 1-188) (Homo sapiens, UniProt P01116, G12D); assay: KRAS G12D probe displacement assay (TR-FRET); assay type: binding; conditions: Table 5; KRAS G12D 0.5 nM, biotinylated probe 2 4 nM
Protocol: Plates are incubated at 24° C. for 1 hr.

[4] = system: pERK1/2(THR202/TYR204) level in AsPC-1 cell line; assay: KRAS G12D pERK assay in AsPC-1 cells (HTRF); assay type: cell-based
Protocol: AsPC-1 cell line was used in this study. Cells were maintained in RPMI-1640 supplemented with 10% fetal bovine serum (Thermo Fisher), 50 units/ml, penicillin and streptomycin (Thermo Fisher) and kept at 37° C. in a humidified atmosphere of 5% CO2 in air. Cells were reinstated from frozen stocks that were laid down within 30 passages from the original cells purchased. 30000 cells per well were seeded into a 96-well plate and incubated overnight. Cells were treated with a 10-point dilution series. The final compound concentration is from 0 to 10 μM. After 2 h compound treatment, cells were lysed, and the pERK1/2(THR202/TYR204) level in the cell lysates was detected by HTRF kit (Cisbio). In brief, a total of 16 μL of cell lysate from each well of a 96-well plate was transferred to a 384-well white assay plate. Lysate from each well was incubated with 2 μL of Eu3+-cryptate (donor) labeled anti-phospho-ERK1/2 and 2 μL of D2 (acceptor) labeled anti-phospho-ERK1/2 antibodies (Cisbio) overnight in dark at room temperature. When the donor and acceptor are in close proximity, excitation of the donor with laser triggers a Fluorescence Resonance Energy Transfer (FRET) towards the acceptor, which in turn fluoresces at 655 nm wavelength. FRET signals were measured using a PHERAstar FSX reader (BMG Labtech). IC50 determination was performed by fitting the curve of percent inhibition versus the log of the inhibitor concentration using Dotmatics.

[5] = Homo sapiens, SW-620, Table 4, 2 hrs compound treatment
[6] = Homo sapiens, ASPC1, Table 5, 2 h compound treatment

Sequence of GST-tagged GDP-loaded KRAS G12V (amino acids 1-169) (P01116 1-169 isoform P01116-2 G12V): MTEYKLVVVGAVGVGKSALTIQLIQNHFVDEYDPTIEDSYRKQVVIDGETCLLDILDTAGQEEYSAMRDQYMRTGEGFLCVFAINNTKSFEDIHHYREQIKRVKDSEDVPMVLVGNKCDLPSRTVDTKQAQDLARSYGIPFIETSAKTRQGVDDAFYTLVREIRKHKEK
Sequence of GST-tagged GDP-loaded KRAS G12D (amin acids 1-188) (P01116 1-188 isoform P01116-2 G12D): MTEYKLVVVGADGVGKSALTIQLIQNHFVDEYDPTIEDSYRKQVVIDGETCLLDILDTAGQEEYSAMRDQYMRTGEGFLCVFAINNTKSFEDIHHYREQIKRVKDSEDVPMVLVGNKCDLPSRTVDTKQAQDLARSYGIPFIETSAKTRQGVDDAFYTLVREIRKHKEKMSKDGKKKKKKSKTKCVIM

SMILES	pIC50 [1]	pIC50 [2, 5]	pIC50 [3]	pIC50 [4, 6]	pIC50 ([2]; Table 4, 2 hrs compound treatment)	pIC50 ([4]; Table 5, 2 h compound treatment)
C[C@@H]1C[C@H](C)Oc2nc(-c3cc(N)cc(Cl)c3C(F)(F)F)c(F)c3nc(OC[C@@]45CCCN4C[C@H](F)C5)nc(c23)N1C [Example 34, 3-chloro-5-((8S,10R)-4-fluoro-2-(((2R,7aS)-2-fluorotetrahydro-1H-pyrrolizin-7a(5H)-yl)methoxy)-8,10,11-trimethyl-8,9,10,11-tetrahydro-7-oxa-1,3,6,11-tetraazacycloocta[de]naphthalen-5-yl)-4-(trifluoromethyl)aniline]	9.23	7.89	9.23	7.60	–	–
CN1c2nc(OC[C@@]34CCCN3C[C@H](F)C4)nc3c(F)c(-c4cc(N)cc(Cl)c4C(F)(F)F)nc(c23)O[C@@H]2CCOC[C@H]21 [Example 51, 3-chloro-5-((7aR,11aR)-4-fluoro-2-(((2R,7aS)-2-fluorotetrahydro-1H-pyrrolizin-7a(5H)-yl)methoxy)-12-methyl-7a, 8,11a, 12-tetrahydro-9H, 11H-7,10-dioxa-1,3,6,12-tetraazapleiaden-5-yl)-4-(trifluoromethyl)aniline]	9.30	8.03	9.55	7.52	–	–
CN1c2nc(OC[C@@]34CCCN3C[C@H](F)C4)nc3c(F)c(-c4cc(N)cc(Cl)c4C(F)(F)F)nc(c23)O[C@H]2COCC[C@@H]21 [Example 49, 3-chloro-5-((7aR,11aS)-4-fluoro-2-(((2R,7aS)-2-fluorotetrahydro-1H-pyrrolizin-7a(5H)-yl)methoxy)-12-methyl-7a, 8,10,11,11a, 12-hexahydro-7,9-dioxa-1,3,6,12-tetraazapleiaden-5-yl)-4-(trifluoromethyl)aniline]	9.27	8.08	9.57	8.12	–	–
Cc1cc(N)cc(-c2nc3c4c(nc(OC[C@@]56CCCN5C[C@H](F)C6)nc4c2F)N(C)[C@@H]2COCC[C@H]2O3)c1C(F)(F)F [Example 61, 3-((7aR,11aR)-4-fluoro-2-(((2R,7aS)-2-fluorotetrahydro-1H-pyrrolizin-7a(5H)-yl)methoxy)-12-methyl-7a, 8,11a, 12-tetrahydro-9H, 11H-7,10-dioxa-1,3,6,12-tetraazapleiaden-5-yl)-5-methyl-4-(trifluoromethyl)aniline]	9.10	7.66	9.24	7.64	–	–
Cc1cc(N)cc(-c2nc3c4c(nc(OC[C@]56CCC[C@H]5N(C)CCC6)nc4c2F)N(C)[C@H]2CCOC[C@@H]2O3)c1C(F)(F)F [Example 65, 3-((7aR,11aS)-4-fluoro-12-methyl-2-(((4aS,7aR)-1-methyloctahydro-4aH-cyclopenta[b]pyridin-4a-yl)methoxy)-7a, 8,10,11,11a, 12-hexahydro-7,9-dioxa-1,3,6,12-tetraazapleiaden-5-yl)-5-methyl-4-(trifluoromethyl)aniline]	9.33	8.05	9.57	7.77	–	–
CN1c2nc(OC[C@@]34CCCN3C[C@H](F)C4)nc3c(F)c(-c4cc(N)cc(Cl)c4C(F)(F)F)nc(c23)OCCC12COC2 [Example 30, 3-chloro-5-(4-fluoro-2-(((2R,7aS)-2-fluorotetrahydro-1H-pyrrolizin-7a(5H)-yl)methoxy)-11-methyl-8,9-dihydro-11H-7-oxa-1,3,6,11-tetraazaspiro[cycloocta[de]naphthalene-10,3′-oxetan]-1(11a), 2,3a, 3a^1(6a), 5-pentaen-5-yl)-4-(trifluoromethyl)aniline]	9.20	–	9.51	–	7.89	7.96
CN1CCCOc2cc(-c3ccc(F)c4sc(N)c(C#N)c34)c(F)c3nc(OC[C@@]45CCCN4C[C@H](F)C5)nc1c23 [Example 2, 2-amino-7-fluoro-4-(11-fluoro-2-(((2R,7aS)-2-fluorotetrahydro-1H-pyrrolizin-7a(5H)-yl)methoxy)-4-methyl-4.5,6,7-tetrahydro-[1,5]oxazocino[4,3,2-de]quinazolin-10-yl)benzo[b]thiophene-3-carbonitrile]	8.44	6.59	8.21	6.23	–	–
CN1CCC[C@@]2(COc3nc4c5c(nc(-c6cc(N)cc(Cl)c6C(F)(F)F)c(F)c5n3)O[C@H]3COCC[C@@H]3N4C)CCC[C@@H]12 [Example 64, 3-chloro-5-((7aR,11aS)-4-fluoro-12-methyl-2-(((4aS,7aR)-1-methyloctahydro-4aH-cyclopenta[b]pyridin-4a-yl)methoxy)-7a, 8,10,11,11a, 12-hexahydro-7,9-dioxa-1,3,6,12-tetraazapleiaden-5-yl)-4-(trifluoromethyl)aniline]	9.60	8.19	10.00	8.10	–	–
CNCCN1c2nc(OC[C@@]34CCCN3C[C@H](F)C4)nc3c(F)c(-c4cc(N)cc(Cl)c4C(F)(F)F)nc(c23)OCCC1C (stereo partly drawn) [Example 20, 3-chloro-5-(4-fluoro-2-(((2R,7aS)-2-fluorotetrahydro-1H-pyrrolizin-7a(5H)-yl)methoxy)-10-methyl-11-(2-(methylamino)ethyl)-8,9,10,11-tetrahydro-7-oxa-1,3,6,11-tetraazacycloocta[de]naphthalen-5-yl)-4-(trifluoromethyl)aniline]	–	–	9.37	6.00	–	–
CNCCN1c2nc(OC[C@@]34CCCN3C[C@H](F)C4)nc3c(F)c(-c4cc(N)cc(Cl)c4C(F)(F)F)nc(c23)OCCC12CC2 [Example 42, 3-chloro-5-(4-fluoro-2-(((2R,7aS)-2-fluorotetrahydro-1H-pyrrolizin-7a(5H)-yl)methoxy)-11-(2-(methylamino)ethyl)-8,9-dihydro-11H-7-oxa-1,3,6,11-tetraazaspiro[cycloocta[de]naphthalene-10,1′-cyclopropan]-1(11a), 2,3a, 4,6-pentaen-5-yl)-4-(trifluoromethyl)aniline]	–	–	9.77	6.85	–	–
CNCCN1c2nc(OC[C@@]34CCCN3C[C@H](F)C4)nc3c(F)c(-c4cc(N)cc(Cl)c4C(F)(F)F)nc(c23)O[C@H]2CCCC[C@@H]21 [Example 48, 3-chloro-5-((7aS,11aS)-4-fluoro-2-(((2R,7aS)-2-fluorotetrahydro-1H-pyrrolizin-7a(5H)-yl)methoxy)-12-(2-(methylamino)ethyl)-7a, 8,10,11,11a, 12-hexahydro-9H-7-oxa-1,3,6,12-tetraazapleiaden-5-yl)-4-(trifluoromethyl)aniline]	–	–	7.70	5.47	–	–
CN(C)CCN1c2nc(OC[C@@]34CCCN3C[C@H](F)C4)nc3c(F)c(-c4cc(N)cc(Cl)c4C(F)(F)F)nc(c23)OCCC12CC2 [Example 43, 3-chloro-5-(11-(2-(dimethylamino)ethyl)-4-fluoro-2-(((2R,7aS)-2-fluorotetrahydro-1H-pyrrolizin-7a(5H)-yl)methoxy)-8,9-dihydro-11H-7-oxa-1,3,6,11-tetraazaspiro[cycloocta[de]naphthalene-10,1′-cyclopropan]-1(11a), 2,3a, 4,6-pentaen-5-yl)-4-(trifluoromethyl)aniline]	–	–	9.14	7.04	–	–
CNCC(C)N1c2nc(OC[C@@]34CCCN3C[C@H](F)C4)nc3c(F)c(-c4cc(N)cc(Cl)c4C(F)(F)F)nc(c23)OCC12CCC2 (stereo partly drawn) [Example 38, 3-chloro-5-(4′-fluoro-2′-(((2R,7aS)-2-fluorotetrahydro-1H-pyrrolizin-7a(5H)-yl)methoxy)-10′-(1-(methylamino)propan-2-yl)-8′H, 10′H-7′-oxa-1′,3′,6′,10′-tetraazaspiro[cyclobutane-1,9′-cyclohepta[de]naphthalen]-1′(10a′), 2′,3a′, 3 al′(6a′), 5′-pentaen-5′-yl)-4-(trifluoromethyl)aniline]	–	–	9.42	6.99	–	–
CC(CN(C)C)N1CCCOc2nc(-c3cc(N)cc(Cl)c3C(F)(F)F)c(F)c3nc(OC[C@@]45CCCN4C[C@H](F)C5)nc1c23 (stereo partly drawn) [Example 40, 3-chloro-5-(11-(1-(dimethylamino)propan-2-yl)-4-fluoro-2-(((2R,7aS)-2-fluorotetrahydro-1H-pyrrolizin-7a(5H)-yl)methoxy)-8,9,10,11-tetrahydro-7-oxa-1,3,6,11-tetraazacycloocta[de]naphthalen-5-yl)-4-(trifluoromethyl)aniline]	–	–	8.12	5.70	–	–
